In ChEMBL document CHEMBL4765272, “Design, synthesis and biological evaluation of tyrosine derivatives as Mcl-1 inhibitors” (Eur J Med Chem, 2020):
pIC50, pKi: −log10 of the molar value. The source made the active and inactive calls. No cut-off for these calls is given here.

How the values were obtained:
[1] = Antiproliferative activity against human KM3 cells incubated for 72 hrs by MTT assay; format: functional, cell-based; conditions: KM3, 72 h
[2] = Induction of apoptosis in human KM3 cells assessed as early apoptotic cells at 10 uM measured after 48 hrs by Annexin V-FITC/propidium iodide staining based flow cytometry (reference value: 2.18%); format: functional
HepG2 [3] = experiment: Induction of apoptosis in human HepG2 cells assessed as necrotic cells at 20 uM measured after 48 hrs by Annexin V-FITC/propidium iodide staining based flow cytometry (reference value: 0.52%); format: functional
RPMI-8226 = experiment: Antiproliferative activity against human RPMI-8226 cells incubated for 72 hrs by MTT assay; format: functional, cell-based; conditions: RPMI-8226, 72 h
KM3 = experiment: Induction of apoptosis in human KM3 cells measured after 48 hrs by Annexin V-FITC/propidium iodide staining based flow cytometry; format: functional, cell-based
HepG2 [4] = experiment: Induction of apoptosis in human HepG2 cells assessed as late apoptotic cells at 20 uM measured after 48 hrs by Annexin V-FITC/propidium iodide staining based flow cytometry (reference value: 1.93%); format: functional
MOLT-4 = experiment: Antiproliferative activity against human MOLT-4 cells incubated for 72 hrs by MTT assay; format: functional, cell-based; conditions: MOLT-4, 72 h
HepG2 [5] = experiment: Antiproliferative activity against human HepG2 cells incubated for 72 hrs by MTT assay; format: functional, cell-based; conditions: HepG2, 72 h
HepG2 [6] = experiment: Induction of apoptosis in human HepG2 cells assessed as necrotic cells at 10 uM measured after 48 hrs by Annexin V-FITC/propidium iodide staining based flow cytometry (reference value: 0.52%); format: functional
[7] = Induction of apoptosis in human KM3 cells assessed as viable cells at 20 uM measured after 48 hrs by Annexin V-FITC/propidium iodide staining based flow cytometry (reference value: 96.24%); format: functional; conditions: read-out: Activity
[8] = Inhibition of 5-FAM-BH3 peptide binding to human N-terminal GST-tagged BCL-2 (1 to 34 residues)/BCL-XL (29 to 44 residues)/BCL-2 isoform 2 (92 to 207 residues) expressed in Escherichia coli BL21 (DE3) by fluorescence polarization assay
Jurkat = experiment: Antiproliferative activity against human Jurkat cells incubated for 72 hrs by MTT assay; format: functional, cell-based
NCI-H1299 = experiment: Antiproliferative activity against human NCI-H1299 cells incubated for 72 hrs by MTT assay; format: functional, cell-based; conditions: NCI-H1299, 72 h
[9] = Induction of apoptosis in human KM3 cells assessed as late apoptotic cells at 20 uM measured after 48 hrs by Annexin V-FITC/propidium iodide staining based flow cytometry (reference value: 1.15%); format: functional
[10] = Induction of apoptosis in human KM3 cells assessed as viable cells at 10 uM measured after 48 hrs by Annexin V-FITC/propidium iodide staining based flow cytometry (reference value: 96.24%); format: functional; conditions: read-out: Activity
HepG2 [11] = experiment: Induction of apoptosis in human HepG2 cells assessed as early apoptotic cells at 20 uM measured after 48 hrs by Annexin V-FITC/propidium iodide staining based flow cytometry (reference value: 0.71%); format: functional
HepG2 [12] = experiment: Induction of apoptosis in human HepG2 cells assessed as viable cells at 20 uM measured after 48 hrs by Annexin V-FITC/propidium iodide staining based flow cytometry (reference value: 96.84%); format: functional; conditions: read-out: Activity
HepG2 [13] = experiment: Induction of apoptosis in human HepG2 cells measured after 48 hrs by TUNEL staining based fluorescence microscopy; format: functional, cell-based
[14] = Induction of apoptosis in human KM3 cells assessed as early apoptotic cells at 20 uM measured after 48 hrs by Annexin V-FITC/propidium iodide staining based flow cytometry (reference value: 2.18%); format: functional
[15] = Induction of apoptosis in human KM3 cells assessed as necrotic cells at 10 uM measured after 48 hrs by Annexin V-FITC/propidium iodide staining based flow cytometry (reference value: 0.42%); format: functional
[16] = Induction of apoptosis in human KM3 cells assessed as late apoptotic cells at 10 uM measured after 48 hrs by Annexin V-FITC/propidium iodide staining based flow cytometry (reference value: 1.15%); format: functional
[17] = Induction of apoptosis in human KM3 cells assessed as necrotic cells at 20 uM measured after 48 hrs by Annexin V-FITC/propidium iodide staining based flow cytometry (reference value: 0.42%); format: functional
[18] = Inhibition of 5-FAM-BH3 peptide binding to N-terminal His8-tagged human MCL-1 (209 to 327 residues)/mouse MCL-1 (152 to 189 residues) expressed in Escherichia coli BL21 (DE3) by fluorescence polarization assay
[19] = biological target: Bcl-2-like protein 1 (Homo sapiens) (UniProt Q07817); experiment: Inhibition of 5-FAM-BH3 peptide binding to human N-terminal GST-tagged BCL-XL (1 to 212 residues) expressed in Escherichia coli BL21 (DE3) at 100 uM by fluorescence polarization assay relative to control
HepG2 [20] = experiment: Induction of apoptosis in human HepG2 cells transfected with siMcl-1 at 10 uM measured after 48 hrs by Annexin V-FITC/propidium iodide staining based flow cytometry; format: functional, cell-based
HepG2 [21] = experiment: Induction of apoptosis in human HepG2 cells measured after 48 hrs by Annexin V-FITC/propidium iodide staining based flow cytometry; format: functional, cell-based
HepG2 [22] = experiment: Induction of apoptosis in human HepG2 cells assessed as late apoptotic cells at 10 uM measured after 48 hrs by Annexin V-FITC/propidium iodide staining based flow cytometry (reference value: 1.93%); format: functional
PC-3 = experiment: Antiproliferative activity against human PC-3 cells incubated for 72 hrs by MTT assay; format: functional, cell-based; conditions: PC-3, 72 h
HepG2 [23] = experiment: Induction of apoptosis in human HepG2 cells assessed as viable cells at 10 uM measured after 48 hrs by Annexin V-FITC/propidium iodide staining based flow cytometry (reference value: 96.84%); format: functional; conditions: read-out: Activity
HepG2 [24] = experiment: Induction of apoptosis in human HepG2 cells assessed as early apoptotic cells at 10 uM measured after 48 hrs by Annexin V-FITC/propidium iodide staining based flow cytometry (reference value: 0.71%); format: functional
HepG2 [25] = experiment: Induction of apoptosis in human HepG2 cells at 10 to 20 uM measured after 48 hrs by TUNEL staining based fluorescence microscopy; format: functional, cell-based; conditions: dose 10-20 µM
Homo sapiens = organism: Homo sapiens; experiment: Inhibition of 5-FAM-BH3 peptide binding to human N-terminal GST-tagged BCL-2 (1 to 34 residues)/BCL-XL (29 to 44 residues)/BCL-2 isoform 2 (92 to 207 residues) expressed in Escherichia coli BL21 (DE3) at 100 uM by fluorescence polarization assay relative to control

Bcl-2-like protein 1 (Homo sapiens), sequence (Q07817 whole entry, the tested form may be a part): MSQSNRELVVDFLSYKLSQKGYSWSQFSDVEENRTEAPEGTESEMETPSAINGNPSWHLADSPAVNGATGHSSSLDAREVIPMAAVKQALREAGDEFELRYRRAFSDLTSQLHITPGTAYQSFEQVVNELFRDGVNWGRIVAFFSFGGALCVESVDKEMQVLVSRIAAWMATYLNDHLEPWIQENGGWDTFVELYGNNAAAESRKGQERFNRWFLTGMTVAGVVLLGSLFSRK

Structure (SMILES) | pIC50 [1] | Activity [2] [%] | Activity (HepG2 [3]) [%] | pIC50 (RPMI-8226) | Activity (HepG2 [4]) [%] | pIC50 (MOLT-4) | pIC50 (HepG2 [5]) | Activity (HepG2 [6]) [%] | viability at 20 µM [7] [%] | pIC50 (Jurkat) | pIC50 (NCI-H1299) | Activity [9] [%] | viability at 10 µM [10] [%] | Activity (HepG2 [11]) [%] | viability at 20 µM (HepG2 [12]) [%] | Activity [14] [%] | Activity [15] [%] | Activity [16] [%] | Activity [17] [%] | pKi [18] | also measured
Cc1cc(OCCCOc2ccc(C[C@H](NC(=O)OC(C)(C)C)C(=O)NS(=O)(=O)c3ccc(NCCCc4ccccc4)c([N+](=O)[O-])c3)cc2)cc(C)c1Cl | 5.08 | 12.11 | 2.64 | 5.20 | 78.54 | 4.76 | 5.19 | 2.02 | 12.9 | 4.82 | 4.68 | 64.31 | 82.3 | 3.4 | 15.4 | 20.71 | 0.66 | 4.94 | 2.09 | 6.74 | Activity (KM3): Dose-dependent effect; pKi [8]: 5.96; Activity (HepG2 [13]): Dose-dependent effect; inhibition [19]: > 50%; Activity (HepG2 [20]): inactive; Activity (HepG2 [21]): Dose-dependent effect; Activity (HepG2 [22]): 7.18%; pIC50 (PC-3): 4.80; viability at 10 µM (HepG2 [23]): 88.6%; Activity (HepG2 [24]): 2.24%
O=C(O)CSc1cc(NS(=O)(=O)c2ccc(Br)cc2)c2ccccc2c1O | 4.95 | 15.35 | 0.45 | 5.24 | 86.11 | 5.50 | 4.94 | 1.36 | 23.8 | 5.01 | 5.22 | 34.2 | 72.7 | 2.44 | 11 | 40.5 | 0.31 | 11.64 | 1.52 | 6.68 | pKi [8]: 4.96; Activity (HepG2 [25]): Active; inhibition [19]: > 50%; Activity (HepG2 [22]): 20.03%; pIC50 (PC-3): 5.07; viability at 10 µM (HepG2 [23]): 76.4%; Activity (HepG2 [24]): 2.23%
Cc1ccc(CC(=O)N[C@@H](Cc2cc(Br)c(OCCOc3cccc4ccccc34)c(Br)c2)C(=O)NS(=O)(=O)c2ccc(NCCCc3ccccc3)c([N+](=O)[O-])c2)cc1 | 4.94 | 10.47 | 2.04 | 5.12 | 80.03 | 4.75 | 5.12 | 2.63 | 8.34 | 4.78 | 4.67 | 74.52 | 84.5 | 2.38 | 15.6 | 16.21 | 0.73 | 4.31 | 0.93 | 6.64 | Activity (KM3): Dose-dependent effect; Activity (HepG2 [13]): Dose-dependent effect; inhibition [19]: > 50%; inhibition (Homo sapiens): > 50%; Activity (HepG2 [20]): inactive; Activity (HepG2 [21]): Dose-dependent effect; Activity (HepG2 [22]): 9.03%; pIC50 (PC-3): 4.72; viability at 10 µM (HepG2 [23]): 85.9%; Activity (HepG2 [24]): 2.44%
